# Test results as given in ChEMBL document CHEMBL4308841, “Synthesis, in vitro antiproliferative activity, and kinase inhibitory effects of pyrazole-containing diarylureas and diarylamides” (Eur J Med Chem, 2018).
# Legend:
# HOP-62 [1] = assay: Growth inhibition of human HOP62 cells incubated for 48 hrs by sulforhodamine B assay; type: functional, cell-based; settings: HOP-62, 48 h
# SR [2] = assay: Growth inhibition of human SR cells assessed as cell growth at 0.01 uM incubated for 48 hrs by sulforhodamine B assay relative to control; type: functional; settings: read-out: Activity
# A498 [3] = assay: Growth inhibition of human A498 cells incubated for 48 hrs by sulforhodamine B assay; type: functional, cell-based; settings: A498, 48 h
# K562 [4] = assay: Growth inhibition of human K562 cells assessed as cell growth at 1 uM incubated for 48 hrs by sulforhodamine B assay relative to control; type: functional; settings: K562, 48 h, read-out: Activity
# OVCAR-3 = assay: Growth inhibition of human OVCAR3 cells assessed as cell growth at 100 uM incubated for 48 hrs by sulforhodamine B assay relative to control; type: functional; settings: OVCAR-3, 48 h, read-out: Activity
# SN12C = assay: Growth inhibition of human SN12C cells assessed as cell growth at 0.01 uM incubated for 48 hrs by sulforhodamine B assay relative to control; type: functional; settings: read-out: Activity
# OVCAR-5 = assay: Growth inhibition of human OVCAR5 cells assessed as cell growth at 100 uM incubated for 48 hrs by sulforhodamine B assay relative to control; type: functional; settings: OVCAR-5, 48 h, read-out: Activity
# NCI-H23 = assay: Growth inhibition of human NCI-H23 cells assessed as cell growth at 0.01 uM incubated for 48 hrs by sulforhodamine B assay relative to control; type: functional; settings: NCI-H23, 48 h, read-out: Activity
# A549 [5] = assay: Growth inhibition of human A549/ATCC cells assessed as cell growth at 0.01 uM incubated for 48 hrs by sulforhodamine B assay relative to control; type: functional; settings: A549, 48 h, read-out: Activity
# SK-MEL-5 = assay: Growth inhibition of human SK-MEL-5 cells assessed as cell growth at 0.01 uM incubated for 48 hrs by sulforhodamine B assay relative to control; type: functional; settings: SK-MEL-5, 48 h, read-out: Activity
# OVCAR-4 [6] = assay: Growth inhibition of human OVCAR4 cells assessed as cell growth at 0.1 uM incubated for 48 hrs by sulforhodamine B assay relative to control; type: functional; settings: OVCAR-4, 48 h, read-out: Activity
# A549 [7] = assay: Growth inhibition of human A549/ATCC cells assessed as cell growth at 100 uM incubated for 48 hrs by sulforhodamine B assay relative to control; type: functional; settings: A549, 48 h, read-out: Activity
# PC-3 [8] = assay: Growth inhibition of human PC3 cells assessed as cell growth at 0.01 uM incubated for 48 hrs by sulforhodamine B assay relative to control; type: functional; settings: PC-3, 48 h, read-out: Activity
# ACHN = assay: Growth inhibition of human ACHN cells assessed as cell growth at 0.01 uM incubated for 48 hrs by sulforhodamine B assay relative to control; type: functional; settings: read-out: Activity
# OVCAR-4 [9] = assay: Growth inhibition of human OVCAR4 cells assessed as cell growth at 1 uM incubated for 48 hrs by sulforhodamine B assay relative to control; type: functional; settings: OVCAR-4, 48 h, read-out: Activity
# LOX IMVI = assay: Growth inhibition of human LOXIMVI cells assessed as cell growth at 1 uM incubated for 48 hrs by sulforhodamine B assay relative to control; type: functional; settings: read-out: Activity
# HT-29 [10] = assay: Growth inhibition of human HT-29 cells assessed as cell growth at 0.1 uM incubated for 48 hrs by sulforhodamine B assay relative to control; type: functional; settings: HT-29, 48 h, read-out: Activity
# A498 [11] = assay: Growth inhibition of human A498 cells assessed as cell growth at 1 uM incubated for 48 hrs by sulforhodamine B assay relative to control; type: functional; settings: A498, 48 h, read-out: Activity
# SR [12] = assay: Growth inhibition of human SR cells assessed as cell growth at 100 uM incubated for 48 hrs by sulforhodamine B assay relative to control; type: functional; settings: read-out: Activity
# NCI-H226 = assay: Growth inhibition of human NCI-H226 cells assessed as cell growth at 1 uM incubated for 48 hrs by sulforhodamine B assay relative to control; type: functional; settings: NCI-H226, 48 h, read-out: Activity
# PC-3 [13] = assay: Growth inhibition of human PC3 cells incubated for 48 hrs by sulforhodamine B assay; type: functional, cell-based; settings: PC-3, 48 h
# HT-29 [14] = assay: Growth inhibition of human HT-29 cells incubated for 48 hrs by sulforhodamine B assay; type: functional, cell-based; settings: HT-29, 48 h
# SK-OV-3 = assay: Growth inhibition of human SKOV3 cells assessed as cell growth at 1 uM incubated for 48 hrs by sulforhodamine B assay relative to control; type: functional; settings: SK-OV-3, 48 h, read-out: Activity
# K562 [15] = assay: Growth inhibition of human K562 cells incubated for 48 hrs by sulforhodamine B assay; type: functional, cell-based; settings: K562, 48 h
# KM12 = assay: Growth inhibition of human KM12 cells assessed as cell growth at 1 uM incubated for 48 hrs by sulforhodamine B assay relative to control; type: functional; settings: KM12, 48 h, read-out: Activity
# MDA-MB-231 [16] = assay: Growth inhibition of human MDA-MB-231 cells assessed as cell growth at 0.1 uM incubated for 48 hrs by sulforhodamine B assay relative to control; type: functional; settings: MDA-MB-231, 48 h, read-out: Activity
# Malme-3M = assay: Growth inhibition of human MALME-3M cells assessed as cell growth at 100 uM incubated for 48 hrs by sulforhodamine B assay relative to control; type: functional; settings: read-out: Activity
# OVCAR-8 = assay: Growth inhibition of human OVCAR8 cells assessed as cell growth at 100 uM incubated for 48 hrs by sulforhodamine B assay relative to control; type: functional; settings: OVCAR-8, 48 h, read-out: Activity
# MDA-MB-231 [17] = assay: Growth inhibition of human MDA-MB-231 cells assessed as cell growth at 1 uM incubated for 48 hrs by sulforhodamine B assay relative to control; type: functional; settings: MDA-MB-231, 48 h, read-out: Activity
# SF-268 = assay: Growth inhibition of human SF268 cells assessed as cell growth at 0.1 uM incubated for 48 hrs by sulforhodamine B assay relative to control; type: functional; settings: SF-268, 48 h, read-out: Activity
# HOP-62 [18] = assay: Growth inhibition of human HOP62 cells assessed as cell growth at 0.01 uM incubated for 48 hrs by sulforhodamine B assay relative to control; type: functional; settings: HOP-62, 48 h, read-out: Activity
# [19] = read-out: LC50 (the source's name)
# [20] = read-out: pLC50 (the source's name) (converted)
compound,measurement,setting,value
O=C(Nc1cccc(-n2cc(-c3ccncc3)c(-c3cc(O)cc(Cl)c3)n2)c1)Nc1ccc(Cl)c(Cl)c1,GI50,HOP-62 [1]; read-out: GI50,2520 nM
same,CC50,HOP-62 [1]; [19],> 100 µM
same,TGI,HOP-62 [1]; read-out: TGI,85.1 µM
same,GI50,HOP-62 [1]; read-out: pGI50 (converted),2820 nM
same,CC50,HOP-62 [1]; [20],> 100 µM
same,TGI,HOP-62 [1]; read-out: pTGI (converted),8.51 µM
same,growth at 0.01 µM,SR [2],57%
same,GI50,A498 [3]; read-out: GI50,2090 nM
same,CC50,A498 [3]; [19],4.13 µM
same,TGI,A498 [3]; read-out: TGI,90.6 µM
same,GI50,A498 [3]; read-out: pGI50 (converted),2090 nM
same,CC50,A498 [3]; [20],41.7 µM
same,TGI,A498 [3]; read-out: pTGI (converted),9.12 µM
same,growth at 1 µM,K562 [4],83%
same,growth at 100 µM,OVCAR-3,-20%
same,growth at 0.01 µM,SN12C,100%
same,growth at 100 µM,OVCAR-5,-80%
same,growth at 0.01 µM,NCI-H23,96%
same,growth at 0.01 µM,A549 [5],96%
same,growth at 0.01 µM,SK-MEL-5,95%
same,growth at 0.1 µM,OVCAR-4 [6],95%
same,growth at 100 µM,A549 [7],-32%
same,growth at 0.01 µM,PC-3 [8],90%
same,growth at 0.01 µM,ACHN,91%
same,growth at 1 µM,OVCAR-4 [9],100%
same,growth at 1 µM,LOX IMVI,83%
same,growth at 0.1 µM,HT-29 [10],97%
same,growth at 1 µM,A498 [11],75%
same,growth at 100 µM,SR [12],-30%
same,growth at 1 µM,NCI-H226,96%
same,IC50,PC-3 [13],1690 nM
same,GI50,PC-3 [13]; read-out: GI50,1590 nM
same,CC50,PC-3 [13]; [19],> 100 µM
same,TGI,PC-3 [13]; read-out: TGI,58.8 µM
same,GI50,PC-3 [13]; read-out: pGI50 (converted),1700 nM
same,CC50,PC-3 [13]; [20],> 100 µM
same,TGI,PC-3 [13]; read-out: pTGI (converted),5.62 µM
same,GI50,HT-29 [14]; read-out: GI50,1920 nM
same,CC50,HT-29 [14]; [19],7.9 µM
same,TGI,HT-29 [14]; read-out: TGI,39 µM
same,GI50,HT-29 [14]; read-out: pGI50 (converted),1910 nM
same,CC50,HT-29 [14]; [20],7.94 µM
same,TGI,HT-29 [14]; read-out: pTGI (converted),3.89 µM
same,growth at 1 µM,SK-OV-3,110%
same,GI50,K562 [15]; read-out: GI50,2560 nM
same,LC50,K562 [15]; read-out: LC50,> 100 µM
same,TGI,K562 [15]; read-out: TGI,> 100 µM
same,GI50,K562 [15]; read-out: pGI50 (converted),2570 nM
same,LC50,K562 [15]; read-out: pLC50 (converted),> 100 µM
same,TGI,K562 [15]; read-out: pTGI (converted),> 100 µM
same,growth at 1 µM,KM12,72%
same,growth at 0.1 µM,MDA-MB-231 [16],85%
same,growth at 100 µM,Malme-3M,-45%
same,growth at 100 µM,OVCAR-8,-38%
same,growth at 1 µM,MDA-MB-231 [17],50%
same,growth at 0.1 µM,SF-268,98%
same,growth at 0.01 µM,HOP-62 [18],105%
